Ki data for 7 compounds are collected here from BindingDB's records for doi:10.7270/Q20R9MZM (Merrell Dow Research Institute, 1990).

pKi: −log10 of the molar value.

For this test, the target named is T1, Prunasin hydrolase (Prunus dulcis, UniProt H9ZGD9).
T1 sequence (H9ZGD9 whole entry): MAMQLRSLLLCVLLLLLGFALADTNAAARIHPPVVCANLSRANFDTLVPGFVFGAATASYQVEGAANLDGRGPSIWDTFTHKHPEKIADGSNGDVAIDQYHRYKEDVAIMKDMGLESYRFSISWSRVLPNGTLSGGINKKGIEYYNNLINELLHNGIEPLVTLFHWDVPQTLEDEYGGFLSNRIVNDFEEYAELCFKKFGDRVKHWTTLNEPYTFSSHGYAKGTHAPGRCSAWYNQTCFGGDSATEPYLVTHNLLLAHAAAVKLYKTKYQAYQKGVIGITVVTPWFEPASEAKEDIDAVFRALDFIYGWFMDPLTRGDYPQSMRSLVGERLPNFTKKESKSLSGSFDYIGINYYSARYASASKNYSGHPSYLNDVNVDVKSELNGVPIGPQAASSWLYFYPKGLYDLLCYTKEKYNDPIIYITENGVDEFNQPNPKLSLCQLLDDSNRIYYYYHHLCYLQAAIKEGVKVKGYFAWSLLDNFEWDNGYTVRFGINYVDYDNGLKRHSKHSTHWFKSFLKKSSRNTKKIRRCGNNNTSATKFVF
The experiment in a line: Enzyme Assay. As to conditions: pH 5.6; 37 °C. The method, then: The enzyme activity was measured by monitoring the increase in absorbance at 400 nm due to hydrolysis of para-nitrophenyl-beta-glucopyranoside. All assays were carried out in the presence of 0.05M sodium acetate buffer (pH 5.6) and 0.1 mM EDTA at 37 C.
For orientation: pKi means the negative decadic logarithm of the Ki, by convention in mol/L. In the case of `OC[C@H]1O[C@@H](Oc2ccccc2C(F)F)[C@H](O)[C@@H](O)[C@@H]1O` [Glucosidase inhibitor, 6e], the pKi is 2.43.
In turn, `COc1cc(C(F)F)ccc1O[C@@H]1O[C@H](CO)[C@@H](O)[C@H](O)[C@H]1O` [Glucosidase inhibitor, 6b] gave a pKi of 4.22.
Next, `OC[C@H]1O[C@@H](Oc2ccc(C(F)F)cc2)[C@H](O)[C@@H](O)[C@@H]1O` [Glucosidase inhibitor, 6a]: 2.77; `COc1cc(C(F)F)cc(OC)c1O[C@@H]1O[C@H](CO)[C@@H](O)[C@H](O)[C@H]1O` [Glucosidase inhibitor, 6d]: 2.72; `COc1cc(CF)ccc1O[C@@H]1O[C@H](CO)[C@@H](O)[C@H](O)[C@H]1O` [Glucosidase inhibitor, 11]: 3.10.
For the compound `CCOc1cc(C(F)F)ccc1O[C@@H]1O[C@H](CO)[C@@H](O)[C@H](O)[C@H]1O` [Glucosidase inhibitor, 6c], the pKi was 4.00.
On to `COc1ccc(O[C@@H]2O[C@H](CO)[C@@H](O)[C@H](O)[C@H]2O)c(C(F)F)c1` [Glucosidase inhibitor, 6f], for which the pKi was 3.05.
